The subject of experiment [1] is acetic acid-induced writhes in ICR mice. Kind of experiment: Writhing test (acetic acid). The experiment is classed as in vivo. Conditions: Mus musculus, po. As for the experimental part: To examine the pain relief effect of the carbamate compounds, a writhing test was conducted, referring to Fischer, L. G. et al. (2008).
ICR mice (male, 24-28g; Orient Bio, Korea) were habituated before test (in test room) for 1 hour. Animals were fasted 2 hr before administration of compounds. Each of compounds was orally administered at the three dose, 10 ul/g, bw (n=3-5/group). All compounds were dissolved in a vehicle of 30% (v/v) PEG 400 or 20% (v/v) Tween 80. The control group was treated the vehicle without compounds.
0.2-2 hour after the administration of compounds, 0.6% acetic acid at the dose of 10 ul/g by bodyweight was injected into the mice Animals were habituated in the cage for 5 min. 5 min after habituation, the number of writhes (abdominal constriction) was counted for 15 min, referring to Korzeniewska-Rybicka, I. et al. (1998) and compared with that of a control.
The relative values compared to the control (% control) were calculated and shown in […]

The test system of a further experiment is SNL model in rats. As to the kind of experiment: Antiallodynic activity on Chung model (SNL, spinal nerve ligation), von Frey test. The experiment is classed as in vivo, Sprague-Dawley rats. The following applies: orally. The source says: Male Sprague-Dawley rats (100-130 g, Orient Bio, Korea) were habituated for 1 week before the experiment, and allowed free access to food and water throughout the experimentation. Room temperature and humidity were maintained at 24±2 and 50±10%, respectively. The neuropathic surgery (SNL, Spinal nerve ligation) model was done as described in Kim and Chung (1992). Briefly, an animal was put under gaseous anesthesia with isoflurane. The left lumber spinal nerve L5 and L6 were isolated and tightly ligated with 6-0 silk thread. […]
Tactile sensitivity (Mechanical allodynia) was evaluated using von Frey monofilaments before and after treatment, and animals were included in the study only if the withdrawal threshold value was less than 4 g. […] The tactile sensitivity for the ipsilateral hind paw was measured using the up-and-down method (Dixon, 1980) with seven von Frey monofilaments (0.4, 1, 2, 4, 6, 8, and 15 g) in 3 trials. […] The 50% paw withdrawal threshold for each paw was calculated using the following formula: [Xth]log=[vFr]log+ky where [vFr] is the force of the last von Frey used, k=0.2249 which is the average interval (in log units) between the von Frey monofilaments, and y is a value that depends upon the pattern of withdrawal responses (Dixon, 1980). […]

Experiment [2] has as its system MES (electroshock) seizure in mice. As to the kind of experiment: Anti-epilepsy activity, MES test in mouse. Conditions: po. The experiment is classed as in vivo, ICR mice. The procedure, abridged:
(§1)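 Male ICR mice (19–25 g) and male SD rats (100–130 g) dosed orally with compound in 20% Tween 80/saline, then shocked via corneal electrodes at peak time (mice 50 mA, rats 150 mA; 60 Hz, 0.2 sec). Three doses used; ED50 for seizure protection by Litchfield–Wilcoxon log-probit.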

For experiment [3], the system named is MES (electroshock) seizure in rats. Kind of experiment: Anti-epilepsy activity, MES test in rats. The experiment is classed as in vivo, SD rats. The following applies: Rattus norvegicus, po. The method in brief: as §1
For experiment [4], the system named is Picrotoxin (PIC)-induced clonic seizure in mice. Kind of experiment: Chemical induced seizure model (PIC). The experiment is classed as in vivo, ICR mice. The method, then: Picrotoxin (PIC) were used to induce the behavioral seizures in the experiments. Male ICR mice (purchased from Orient Bio Inc. Korea) of body weight 19-26 g (mice) were used for these studies. The test materials were administered intraperitoneal (ip) route in a volume of 10 ul/g (mice) weight in rats or mice, respectively. Pharmacological effects of the test materials were evaluated to compared test groups (n=6) with a control group (n=6). Control group was administrated vehicle, only. The peak time was determined by administration of test material's random dose for 0.5, 1, 2, 4 hour. The time that the most protect was defined as a peak time and ED50 was determined by other dose administration at the peak time. Chemical (PIC) was dissolved in 0.9% saline and administered subcutaneously (s.c.) at its CD97 (convulsive dose 97%), the dose of Chemical (PIC) that produced clonic seizures in 97% into a loose fold of skin in the midline of the neck in a volume of 10 ul/g (mice) body weight. The animals were then transferred to observation cages and observed continuously for 45 min. Clonic seizure was elicited in approximately 97% of control group. Protection was defined as a complete absence of clonic seizure over the 45-min observation period. The effective dose of compound necessary to protect against generalized convulsive seizures to 50% of controls (i.e., ED50) was determined by log probit analysis using SPSS software program (SPSS Inc.). (Reference; White H. S., J. H. Woodhead, K. S. Wilcox, J. P. Stables, H. J. Kupferberg, and H. H. Wolf. General Principles; Discovery and Preclinical Development of Antiepileptic Drugs. In: R. H. Levy, R. H. Mattson, B. S. Meldrum, and E. Perucca, eds. Antiepileptic Drugs, 5th Ed. Lippincott Williams & Wilkins, Philadelphia 2002: pp. 36-48.) The obtained results are shown in following Table 10.

Consider 2 compounds from patent publication US11168052B2, “Carbamate derivative compounds, processes for preparing them and their uses” (BIO-PHARM SOLUTIONS CO., LTD., priority 2016, dated 2021).

The structures appear in SMILES notation.

Regarding `NC(=O)O[C@@H]1CCc2cccc(Cl)c2[C@@H]1O` [Example 1, (1S, 2R)-8-chloro-1-hydroxy-1,2,3,4-tetrahydronaphthalen-2-yl carbamate], the ED50 came out at 46.1 mg/kg in experiment [1]; 35.5 mg/kg with SNL model in rats (Rattus norvegicus, po, von Frey threshold relative to sham); 12.1 mg/kg in experiment [2]; 5.9 mg/kg in experiment [3]; 23.7 mg/kg in experiment [4] (Mus musculus, ip, read-out: PIC(ip) ED50).

As to `NC(=O)O[C@@H]1c2c(Cl)cccc2CC[C@@H]1O` [Example 19, (1R, 2S)-8-chloro-2-hydroxy-1,2,3,4-tetrahydronaphthalen-1-yl carbamate], the results for the ED50 in experiment [1], in experiment [2] and in experiment [3] were 30 mg/kg, 22.4 mg/kg and 4.6 mg/kg, respectively. Also, the SNL efficacy % in the experiment on SNL model in rats (dose 30 mg/kg) is given as 30(17.8%). Besides, the “PIC(ip) efficacy %” value in experiment [4] (mice, dose 120 mg/kg) is on record as 120 (16.6%).
